In the supplement of paper PMC10307832:

Legend:
Experiment in all cases: relative viability (nuclei count vs DMSO), 5 days (fraction); higher = more cells survive
[1] = compound: COC1=CC=C(C=C1)COC2=C(C=C(C=C2)CC3=CN=C(N=C3N)N)OC [GW-2580] + Nc1nc2[nH]cc(CCc3ccc(C(=O)N[C@@H](CCC(=O)O)C(=O)O)cc3)c2c(=O)[nH]1 [Pemetrexed] (partner 0.2 µM)
How it was run: (§1)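 Relative viability equals treated-well nuclei counts divided by vehicle-well nuclei counts. Counts came from 4× images of lung cancer cell lines grown in 1536-well plates for 5 days after pin-tool dosing on the day after seeding. Dosing used one drug alone or a fixed anchor-drug dose plus five library-drug doses (not always all listed) in √10 steps, and values are medians of duplicate plates.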

[2] = compound: COC1=CC=C(C=C1)COC2=C(C=C(C=C2)CC3=CN=C(N=C3N)N)OC [GW-2580] + CCNC(=O)c1noc(-c2cc(C(C)C)c(O)cc2O)c1-c1ccc(CN2CCOCC2)cc1 [Luminespib] (partner 0.01 µM)
How it was run: as §1

[3] = compound: COC1=CC=C(C=C1)COC2=C(C=C(C=C2)CC3=CN=C(N=C3N)N)OC [GW-2580] + CC(C)C[C@H](NC(=O)[C@H](Cc1ccccc1)NC(=O)c1cnccn1)B(O)O [Bortezomib] (partner 0.002 µM)
How it was run: as §1

[4] = compound: Cc1cnc(Nc2ccc(OCCN3CCCC3)cc2)nc1Nc1cccc(S(=O)(=O)NC(C)(C)C)c1 [Fedratinib] + Nc1nc2[nH]cc(CCc3ccc(C(=O)N[C@@H](CCC(=O)O)C(=O)O)cc3)c2c(=O)[nH]1 [Pemetrexed] (partner 0.2 µM)
How it was run: as §1

[5] = compound: Cc1cnc(Nc2ccc(OCCN3CCCC3)cc2)nc1Nc1cccc(S(=O)(=O)NC(C)(C)C)c1 [Fedratinib] + Cc1cc(Nc2cc(N3CCN(C)CC3)nc(Sc3ccc(NC(=O)C4CC4)cc3)n2)n[nH]1 [Tozasertib] (partner 0.1 µM)
How it was run: as §1

Cell Line: UMC-11
- relative viability ([1]; first compound 0.08 µM): 0.948
- relative viability ([1]; first compound 0.8 µM): 0.939
- relative viability ([1]; first compound 2.53 µM): 0.754
- relative viability ([1]; first compound 8 µM): 0.718
- relative viability ([2]; first compound 0.08 µM): 0.992
- relative viability ([2]; first compound 0.8 µM): 1.1
- relative viability ([2]; first compound 2.53 µM): 1.12
- relative viability ([2]; first compound 8 µM): 1.16
- relative viability ([3]; first compound 0.08 µM): 0.793
- relative viability ([3]; first compound 0.8 µM): 0.758
- relative viability ([3]; first compound 2.53 µM): 0.788
- relative viability ([3]; first compound 8 µM): 0.603
- relative viability ([4]; first compound 0.1 µM): 0.756
- relative viability ([4]; first compound 0.3162 µM): 0.66
- relative viability ([4]; first compound 1 µM): 0.665
- relative viability ([5]; first compound 0.1 µM): 0.229
- relative viability ([5]; first compound 0.3162 µM): 0.228
- relative viability ([5]; first compound 1 µM): 0.193
